Our source for the IC50 values is patent publication EP4227307A1 (Genzyme Corporation, priority 2022, dated 2023).

Where a name gives a salt, the structure may show the parent alone.

What is called IC50 is the midpoint of a concentration-inhibition curve.

In the experiment the target is T1, human recombinant 6His-Nterm SHP2 full-length (Thr2-Arg593) (Homo sapiens, UniProt Q06124).
T1 construct: 6His-Nterm SHP2 full-length (Thr2-Arg593, R&D system); 6His (N); purchased R&D system
T1 sequence (Q06124 2-593): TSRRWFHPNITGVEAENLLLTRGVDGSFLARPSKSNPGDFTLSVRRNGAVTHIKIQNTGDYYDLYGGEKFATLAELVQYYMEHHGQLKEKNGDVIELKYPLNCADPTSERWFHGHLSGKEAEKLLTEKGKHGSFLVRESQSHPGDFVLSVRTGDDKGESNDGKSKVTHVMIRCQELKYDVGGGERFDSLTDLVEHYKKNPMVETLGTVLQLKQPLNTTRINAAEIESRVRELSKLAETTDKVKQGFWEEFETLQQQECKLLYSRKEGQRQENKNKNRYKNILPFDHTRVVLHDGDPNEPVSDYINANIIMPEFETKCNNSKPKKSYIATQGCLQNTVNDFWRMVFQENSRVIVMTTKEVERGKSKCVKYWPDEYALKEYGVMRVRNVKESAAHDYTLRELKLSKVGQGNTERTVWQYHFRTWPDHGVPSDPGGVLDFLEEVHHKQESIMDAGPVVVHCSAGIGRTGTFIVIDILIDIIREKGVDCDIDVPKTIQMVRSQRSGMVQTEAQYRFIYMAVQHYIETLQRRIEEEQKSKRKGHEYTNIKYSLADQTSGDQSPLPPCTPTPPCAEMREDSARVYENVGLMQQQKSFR
The experiment is described as follows: SHP2 Phosphatase Assay (DiFMUP fluorescence). It is filed as biochemical. Conditions: SHP2 0.2 nM pre-incubated with 100 nM bi-phosphorylated activating peptide; compound 1000-0.05 nM, 30 min pre-incubation; DiFMUP 20 µM, 45 min, room temperature; 10-concentration dose-response. The procedure: Inhibition of SHP2 phosphatase activity was evaluated using human recombinant 6His-Nterm SHP2 full-length (Thr2-Arg593, R&D system), NsCs bi-phosphorylated activating peptide (NH2-LN(pY)AQLWHA(PEG8)LTI(pY)ATIRRF-Amide.acetate, Thermofischer Scientific) and DiFMUP as surrogate phosphatase substrate (Molecular Probes). All reactions were performed at room temperature in 384-well black polystyrene non-binding plate (Corning) with the assay buffer (50 mM HEPES-NaOH pH 7.2, 100 mM NaCl, 0.5 mM EDTA, 0.001% Brij35 including 0.02% BSA and 1 mM DTT added extemporaneously). SHP2 was pre-incubated at least 10 min with the activating peptide (0.2 nM and 100 nM, respectively). 10 µL of this mixture was added to the assay plate, that already contained 15 nL of the compound (1000-0.05 nM). After 30 min pre-incubation, the enzymatic reaction was initiated by the addition of 5 µL DiFMUP in assay buffer without BSA (20 µM). The reaction was stopped by the addition of 15 µL sodium pervanadate solution (100 µM) after 45 min incubation. The fluorescence signal was measured at excitation and emission wavelengths of 350 nm and 450 nm, respectively, using a Pherastar instrument (BMG-LabTech). Percentage of inhibition […] were calculated from the fluorescence signal at 450 nm of the positive and negative control using the following formula: I% = ((signal Max−signal Sample)/(signal Max−signal Min control)) × 100 [formula]
Positive control (Max): corresponds to the maximum fluorescence signal obtained in the presence of 15 nL DMSO replacing the inhibitor in the pre-incubation step.
Negative control (Min): corresponds to the minimum signal obtained in the presence of 1 µM of RMC-4550, the structure of which is shown below: [drawing 464]
The IC50 were then calculated from a dose-response curve of 10 concentrations of tested compound using the 4-parameter logistic model: I% = A + (C)/(1 + exp(−B×log(X)−M)) [formula]
The parameters A and (A+C) are the lower and upper limits, B is the slope of the curve at the inflexion point, M parameter is the logarithm of the abscissa at the inflexion point, and X is the concentration of compound.
Regarding `Cc1nc(N2CCC3(CC2)Cc2ccccc2[C@H]3N)c2ccnn2c1-c1cnn(C)c1C` [Compound 149, (1S)-1'-[7-(1,5-dimethylpyrazol-4-yl)-6-methyl-pyrazolo[1,5-a]pyrazin-4-yl]spiro[indane-2,4'-piperidine]-1-amine], the IC50 stood at 17 nM. The result for `Cc1cc2c(cn1)CC1(CCN(c3nc(C)c(-c4ccnc(C)c4Cl)n4nccc34)CC1)[C@@H]2N` [Compound 112, (5S)-1'-[7-(3-chloro-2-methyl-4-pyridyl)-6-methyl-pyrazolo[1,5-a]pyrazin-4-yl]-3-methyl-spiro[5,7-dihydrocyclopenta[c]pyridine-6,4'-piperidine]-5-amine hydrochloride] reads 5 nM; that for `Cc1cnc2c(c1)[C@@H](N)C1(CCN(c3nc(C)c(-c4ccnc(C)c4Cl)n4nccc34)CC1)C2` [Compound 43, (5S)-1'-[7-(3-chloro-2-methyl-4-pyridyl)-6-methyl-pyrazolo[1,5-a]pyrazin-4-yl]-3-methyl-spiro[5,7-dihydrocyclopenta[b]pyridine-6,4'-piperidine]-5-amine], 4 nM. The result for `Cc1nc(N2CCC3(CC2)Oc2ncccc2[C@H]3N)c2ccnn2c1-c1cccc(F)c1Cl` [Compound 14, (3R)-1'-[7-(2-chloro-3-fluorophenyl)-6-methyl-pyrazolo [1 ,5-a]pyrazin-4-yl]spiro[3H-furo[2,3-b]pyridine-2,4'-piperidine]-3-amine] reads 40 nM. The result for `Cc1nc(N2CCC3(CC2)Cc2ncccc2[C@H]3N)c2ccnn2c1-c1cc(C(F)(F)F)ccc1F` [Compound 187, (5S)-1'-[7-[2-fluoro-5-(trifluoromethyl)phenyl] -6-methyl-pyrazolo[1,5-a]pyrazin-4-yl]spiro[5,7-dihydrocyclopenta[b]pyridine-6,4'-piperidine]-5-amine] reads 250 nM. As for `CNc1cc(-c2c(C)nc(N3CCC4(CC3)Cc3ncccc3[C@H]4N)c3ccnn23)ccn1` [Compound 168, (5S)-1'-[6-methyl-7-[2-(methylamino)-4-pyridyl]pyrazolo[1,5-a]pyrazin-4-yl]spiro[5,7-dihydrocyclopenta[b]pyridine-6,4'-piperidine]-5-amine], the concentration for half-maximal inhibition (IC50) amounted to 30 nM. The result for `Cc1nc(N2CCC3(CC2)Cc2ncccc2[C@H]3N)c2ccnn2c1-c1ccc(C#N)s1` [Compound 190, 5-[6-methyl-4-[(5S)-5-aminospiro[5,7-dihydrocyclopenta[b]pyridine-6,4'-piperidine]-1'-yl]pyrazolo[1,5-a]pyrazin-7-yl]thiophene-2-carbonitrile] reads 31 nM. The result for `Cc1nc(N2CCC3(CC2)Cc2ccncc2[C@H]3N)c2ccnn2c1-c1ccccc1F` [Compound 134, (7S)-1'-[7-(2-fluorophenyl)-6-methyl-pyrazolo[1,5-a]pyrazin-4-yl]spiro[5,7-dihydrocyclopenta[c]pyridine-6,4'-piperidine]-7-amine] reads 4 nM.

For `Cc1nc(N2CCC3(CC2)Cc2ncccc2[C@H]3N)c2ccnn2c1-c1cccc(CO)c1` [Compound 191, [3-[6-methyl-4-[(5S)-5-aminospiro [5,7-dihydrocyclopenta[b]pyridine-6,4'-piperidine]-1'-yl]pyrazolo[1,5-a]pyrazin-7-yl]phenyl]methanol], the IC50 was 16 nM. For `Cc1nccc(-c2c(C)nc(N3CCC4(CC3)Cc3ccccc3[C@H]4N)c3ccnn23)c1Cl` [Compound 25, (S)-1'-(7-(3-chloro-2-methylpyridin-4-yl)-6-methylpyrazolo[1,5-a]pyrazin-4-yl)-1,3-dihydrospiro[indene-2,4'-piperidin]-1-amine hydrochloride], the half-maximal inhibitory concentration (IC50) was determined as 6 nM. To `COc1c(F)cccc1-c1c(C)nc(N2CCC3(CC2)Cc2ncccc2[C@H]3N)c2ccnn12` [Compound 200] belongs 44 nM; to `Cc1nc(N2CCC3(CC2)Cc2ncccc2[C@H]3N)c2ccnn2c1-c1ccc2nccnc2c1F` [Compound 78, (5S)-1'-[7-(5-fluoroquinoxalin-6-yl)-6-methyl-pyrazolo[1,5-a]pyrazin-4-yl]spiro [5,7-dihydrocyclopenta[b]pyridine-6,4'-piperidine] -5-amine hydrochloride], 12 nM.
